Read-outs that look alike come from different tables or passages of the source. Where a SMILES comes first, the peptide text is derived from it. Bridges are numbered along the chain shown (N, C = ends). [ ]: non-standard residue; d: D form. S5 = C=CCCC[C@](C)(N)C(=O)O
Target: T1, Beta-Catenin (aa 134-668) (Homo sapiens, UniProt P35222)
T1 construct: Beta-Catenin (aa 134-668, 59 KD)
T1 sequence (P35222 134-668): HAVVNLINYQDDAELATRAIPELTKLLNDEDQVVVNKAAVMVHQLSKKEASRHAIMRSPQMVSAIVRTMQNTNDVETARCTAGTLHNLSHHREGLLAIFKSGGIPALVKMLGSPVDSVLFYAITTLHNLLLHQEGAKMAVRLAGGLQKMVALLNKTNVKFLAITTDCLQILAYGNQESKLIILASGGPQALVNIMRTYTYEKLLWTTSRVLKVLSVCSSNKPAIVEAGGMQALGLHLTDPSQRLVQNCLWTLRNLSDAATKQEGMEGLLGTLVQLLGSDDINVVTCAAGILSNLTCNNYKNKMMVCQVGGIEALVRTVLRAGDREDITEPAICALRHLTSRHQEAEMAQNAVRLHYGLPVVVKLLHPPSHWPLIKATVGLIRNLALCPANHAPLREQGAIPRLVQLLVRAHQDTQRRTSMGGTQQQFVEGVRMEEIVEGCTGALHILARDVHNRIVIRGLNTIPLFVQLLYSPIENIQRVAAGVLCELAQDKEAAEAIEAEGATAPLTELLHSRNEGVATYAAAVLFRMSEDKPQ
Experiment: TCF/Beta-Catenin competitive fluorescence polarization assay
Assay type: binding
Conditions: competition with FAM-labelled linear probe for 6x His-tagged Beta-Catenin, room temperature, three hours
Protocol: The following experiments are performed at room temperature unless otherwise noted. First, an assay buffer is prepared composed of 25 mM Tris-Hcl pH 7.5, 200 mM Sodium Chloride, and 5 mM CHAPS. Next, 1M DTT is added to assay buffer to a final concentration of 2 mM. […] Forty μl of this protein stock is added to all but six wells of a 96 well plate (which will serve as the free peptide and Blank). Test competitor peptides are diluted from 1 mM DMSO stocks to 2× working stocks in assay buffer. Further dilutions are made in assay buffer-DMSO as to maintain a constant DMSO concentration in all wells. […] As a benchmark, a linear, non-crosslinked peptide competitor is prepared as above but with a working concentration range of 13-0.7 μM. Fifty μl of the competitor 2× stocks are added to the 40 μl of protein solution previously transferred into the assay 96 well plate. Next, a 10× stock of the fluorescent probe is prepared. The probe is identical to the linear benchmark peptide except for the n-terminal conjugation of a FAM flourophore with Beta-Alanine spacer. A 1 mM DMSO stock of the probe is serially diluted to a final concentration of 25 nM (10×) and 10 μl of this stock is added to all wells except for those that will serve as the blank. The assay plate is stored in the dark and the reaction is allowed to run at room temperature for three hours. The reaction is then read on a Biotek Synergy 2 with the following settings: 100 ms delay, 40 measurements per well, with excitation filters of […], and emission filters of […]. Data is then analyzed in Graphpad Prism.

[1] = read-out: Binding Activity: IC50

IC50 [1] [nM]	SMILES	IC50 (Binding Activity: IC50 (nM)) [nM]
	CC[C@H](C)[C@H](NC(=O)[C@H](CC(C)C)NC(=O)[C@H](CCC(=O)O)NC(=O)[C@H](CC(=O)O)NC(=O)[C@H](CC(N)=O)NC(=O)[C@H](C)NC(=O)CNC(=O)[C@H](CC(C)C)NC(C)=O)C(=O)N[C@@H](CO)C(=O)N[C@@H](Cc1ccccc1)C(=O)N[C@@H](CCCCN)C(=O)N[C@@]1(C)CCCC=CCCC[C@@](C)(C(=O)N[C@@H](CCC(=O)O)C(=O)N[C@@H](CCC(=O)O)C(=O)N[C@@H](CCCCN)C(=O)N[C@@H](CO)C(=O)N[C@@H](CO)C(=O)N[C@@H](CC(N)=O)C(=O)N[C@@H](CC(N)=O)C(=O)N[C@@H](CO)C(=O)N[C@@H](CO)C(=O)N[C@@H](C)C(=O)N[C@@H](CCC(=O)O)C(=O)N[C@@H](CCCNC(=N)N)C(=O)N[C@@H](CC(=O)O)C(=O)N[C@@H](CC(C)C)C(=O)N[C@@H](C)C(=O)N[C@@H](CC(=O)O)C(=O)N[C@H](C(=O)N[C@@H](CCCCN)C(=O)N[C@@H](CO)C(=O)N[C@@H](CO)C(=O)N[C@@H](CC(C)C)C(=O)N[C@H](C(N)=O)C(C)C)C(C)C)NC(=O)[C@H](CCC(=O)O)NC(=O)CNC(=O)[C@H](CCC(=O)O)NC1=O [SP27] (Ac-LGANDELISFK[S5]EGE[S5]EEKSSNNSSAERDLADVKSSLV-NH2; staple 12-16)	158
84900	CC(=O)N[C@@H](CO)C(=O)N[C@@H](C)C(=O)N[C@@H](CCC(=O)O)C(=O)N[C@@H](CCCNC(=N)N)C(=O)N[C@@H](CC(=O)O)C(=O)N[C@@H](CC(C)C)C(=O)N[C@@H](C)C(=O)N[C@@H](CC(=O)O)C(=O)N[C@H](C(=O)N[C@@H](CCCCN)C(=O)N[C@@]1(C)CCCC=CCCC[C@@](C)(C(=O)N[C@@H](CCC(=O)O)C(=O)N[C@@H](CO)C(=O)N[C@@H](CCC(=O)O)C(=O)N[C@@H](CCCCN)C(=O)N[C@@H](CCCNC(=N)N)C(N)=O)NC(=O)[C@H](C(C)C)NC(=O)[C@H](CC(C)C)NC(=O)[C@H](CO)NC1=O)C(C)C [SP12, Ac-SAERDLADVK$SLV$ESEKR-NH2] (Ac-SAERDLADVK[S5]SLV[S5]ESEKR-NH2; staple 11-15)	
158	CC[C@H](C)[C@H](NC(=O)[C@H](CC(C)C)NC(=O)[C@H](CCC(=O)O)NC(=O)[C@H](CC(=O)O)NC(=O)[C@H](CC(N)=O)NC(=O)[C@H](C)NC(=O)CNC(=O)[C@H](CC(C)C)NC(C)=O)C(=O)N[C@@H](CO)C(=O)N[C@@H](Cc1ccccc1)C(=O)N[C@@H](CCCCN)C(=O)N[C@@H](CC(=O)O)C(=O)N[C@@H](CCC(=O)O)C(=O)NCC(=O)N[C@@]1(C)CCCC=CCCC[C@@](C)(C(=O)N[C@@H](CO)C(=O)N[C@@H](CO)C(=O)N[C@@H](CC(N)=O)C(=O)N[C@@H](CC(N)=O)C(=O)N[C@@H](CO)C(=O)N[C@@H](CO)C(=O)N[C@@H](C)C(=O)N[C@@H](CCC(=O)O)C(=O)N[C@@H](CCCNC(=N)N)C(=O)N[C@@H](CC(=O)O)C(=O)N[C@@H](CC(C)C)C(=O)N[C@@H](C)C(=O)N[C@@H](CC(=O)O)C(=O)N[C@H](C(=O)N[C@@H](CCCCN)C(=O)N[C@@H](CO)C(=O)N[C@@H](CO)C(=O)N[C@@H](CC(C)C)C(=O)N[C@H](C(N)=O)C(C)C)C(C)C)NC(=O)[C@H](CCC(=O)O)NC(=O)[C@H](CCC(=O)O)NC(=O)[C@H](CCC(N)=O)NC1=O [SP28, Ac-LGANDELISFKDEG$QEE$SSNNSSAERDLADVKSSLV-NH2] (Ac-LGANDELISFKDEG[S5]QEE[S5]SSNNSSAERDLADVKSSLV-NH2; staple 15-19)	

From patent US10300109B2, “Peptidomimetic macrocycles” (AILERON Therapeutics, Inc., priority 2009, dated 2019)
